# Results: patent US10285994B2, “Method of preventing or treating osteoporosis by neddylation inhibitor” (Chang Gung University, priority 2017, dated 2019)
# Key:
# Assay type in all cases: cell-based, mouse
# [1] = tested on: MC3T3-E1 cells; experiment: Osteoblast survival, crystal violet staining of MC3T3-E1 cells; conditions: MC3T3-E1, osteoblast differentiation medium, 21 days, FIG. 4A
# Description: FIGS. 4A-4B respectively depict the osteogenesis of mouse pre-osteoblast cell line MC3T3-E1 cells incubated in the differentiation medium containing specified concentrations of MLN4924 for 21 days according to example 3 of the present disclosure. FIG. 4A: the growth of MC3T3-E1 cells during osteogenesis is analyzed by crystal violet staining. FIG. 4B: the osteogenesis of MC3T3-E1 cells on day 21 is analyzed by measuring Alizarin Red S stain. Diff: osteoblast differentiation medium. MLN: MLN4924.
# The mouse pre-osteoblast cell line MC3T3-E1 cells were cultured in osteoblast differentiation medium with or without MLN4924 for 21 days.
# [2] = tested on: RAW264.7 cells; experiment: Pit assay on Corning Osteo Surface, RAW264.7-derived osteoclasts; conditions: sRANKL-activated RAW264.7 cells, 7 days, FIG. 2B
# Description: FIGS. 2A-2D are data collected from RAW264.7 cells respectively incubated in the medium containing sRANKL (50 ng/ml) and specified concentrations of MLN4924 for 7 days according to example 1.2 of the present disclosure. FIG. 2A: the photographs of TRAP staining depicting the differentiation of osteoclasts from RAW264.7 cells. FIG. 2B: after the differentiation of osteoclasts in Corning Osteo Surface, the cells were removed, and the resorbed areas for confirming osteoclast activity were analyzed by 1% toluidine blue staining. FIG. 2C: the culture medium is subject to Biovision Cathepsin K Activity Fluorometric Assay Kit for the analysis of cathepsin K activity. FIG. 2D: the effect of effective doses of MLN4924 on the viability of RAW264.7 cells is evaluated by MTT assay. Scale bar represents 100 μm. Data are expressed as mean±SD where *p<0.05.
# The pre-osteoclasts and RAW264.7 cells were seeded into Corning Osteo Surface Assay 96-wells plate (Corning, Kennebunk, Me.). Twenty-four hours later, the cells were treated with sRANKL (50 ng/ml) and specified concentrations of MLN4924 for 7 days. The cells were then harvested so as to evaluate the cathepsin K activity by use of Biovision Cathepsin K Activity Fluorometric Assay Kit (Biovision, Milpitas, Calif.). The Corning Osteo surface was stained with 1% toluidine blue for 24 hours and washed with deionized water twice. […]
# [3] = tested on: JNK (pJNK); experiment: Western blot, sRANKL-induced JNK phosphorylation in RAW264.7 cells; conditions: RAW264.7, 30 min pre-treatment, sRANKL 50 ng/ml, FIG. 3A-3B
# Description: FIGS. 3A-3D are data collected from Western blot analysis that respectively depict the expression of specified protein extracted from the RAW264.7 cells, which are pre-treated with specified concentrations of MLN4924 for 30 minutes followed by the stimulation of sRANKL (50 ng/ml) according to example 2 of the present disclosure. FIG. 3A: the time course effect of MLN4924 on the phosphorylations of ERK (pERK), P38 (pP38) and JNK (pJNK). FIG. 3B: the dose effect of MLN4924 on the phosphorylations of ERK (pERK), P38 (pP38) and JNK (pJNK). FIG. 3C: the time course effect of MLN4924 on the expression of NFATc-1. FIG. 3D: the dose effect of MLN4924 on the expression of NFATc-1. Mock: untreated control; R: sRANKL; M: MLN4924.
# The RAW264.7 cells were starved with serum-free medium for six hours and then treated with the specified treatments. At indicated time points, the cells were washed with cold phosphate-buffered saline (PBS) and lysed in RIPA buffer containing complete protease inhibitor cocktail (Roche). The cell lysates were separated by SDS-PAGE followed by Western blotting with the indicated antibodies, including NEDD8, APPBP1, UBA3.
# Specifically, the inhibitory effect increased with an increase in the MLN4924 concentration (FIG. 3B).
structure (smiles),measurement,setting,value
"NS(=O)(=O)OC[C@@H]1C[C@@H](n2ccc3c(N[C@H]4CCc5ccccc54)ncnc32)C[C@@H]1O [MLN4924, (1S,2S,4R)-4-(4-((1S)-2,3-Dihydro-1H-inden-1-ylamino)-7H-pyrrolo(2,3-d)pyrimidin-7-yl)-2-hydroxycyclopentyl) methyl sulphamate]",survival of osteoblasts (crystal violet),[1],"neither the survival of osteoblasts (FIG. 4A), nor the differentiation of osteoblasts (FIG. 4B) was affected"
same,bone matrix resorption of osteoclasts,[2],significantly inhibited
same,sRANKL-upregulated phosphorylation of JNK (pJNK),[3],inhibited
